Read-outs that look alike come from different tables or passages of the source.
Key:
[1] = tested on: subcutaneous metrazol (pentylenetetrazol) seizure; assay: Subcutaneous metrazol seizure threshold test (scMet), mice, intraperitoneal; type: in vivo; settings: ip;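 note: adult male CF no. 1 albino mice weighing 18-25 g, dosed intraperitoneally with compounds suspended in 0.5% methylcellulose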
[2] = tested on: maximal electroshock seizure (MES); assay: Maximal electroshock seizure test (MES), rats, oral; settings: Rattus norvegicus, po, read-out: Anti-MES activity (number of animals protected/number of animals tested);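 note: adult male Sprague-Dawley rats received test compounds by mouth as a suspension in 0.5% methylcellulose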
Method: The tested compounds were suspended in 0.5% methylcellulose and administered (a) intraperitioneally (ip) to adult male CF no. 1 albino mice (18-25 g) in volume of 0.01 mL/g body weight and (b) orally to adult male Sprague-Dawley albino rats (100-150 g) in volume of 0.04 mL per 10 g of body weight.
The TD50 was determined by varying the dose of the tested compounds until four points were established between the dose level that induced no signs of minimal motor impairment in any of the animals and the dose at which all the animals were considered impaired. […] The PIs were calculated by dividing the TD50 by the ED50.

[3] = tested on: maximal electroshock seizure (MES); assay: Maximal electroshock seizure test (MES), mice, intraperitoneal; type: in vivo; settings: ip;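 note: adult male CF no. 1 albino mice of 18–25 g, given compound intraperitoneally as a 0.5% methylcellulose suspension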
[4] = 30 mg/kg, 0.5 h after administration
[5] = 30 mg/kg, 4 h after administration
[6] = 100 mg/kg, 0.5 h after administration
[7] = 100 mg/kg, 4 h after administration
[8] = 300 mg/kg, 0.5 h after administration
[9] = 300 mg/kg, 4 h after administration

melting point [°C]	SMILES	scMet (number of animals protected/number of animals tested) [1, 4]	scMet (number of animals protected/number of animals tested) [1, 5]	scMet (number of animals protected/number of animals tested) [1, 6]	scMet (number of animals protected/number of animals tested) [1, 7]	scMet (number of animals protected/number of animals tested) [1, 8]	scMet (number of animals protected/number of animals tested) [1, 9]	responders at 30 mg/kg ([2]; 0.5 h) [%]	responders at 30 mg/kg ([2]; 1 h) [%]	responders at 30 mg/kg ([2]; 2 h) [%]	responders at 30 mg/kg ([2]; 4 h) [%]	responders at 30 mg/kg ([2]; […]) [%]	MES (number of animals protected/number of animals tested) [3, 4]	MES (number of animals protected/number of animals tested) [3, 5]	MES (number of animals protected/number of animals tested) [3, 6]	MES (number of animals protected/number of animals tested) [3, 7]	MES (number of animals protected/number of animals tested) [3, 8]	MES (number of animals protected/number of animals tested) [3, 9]
–	CCC(C)C(=O)Nc1ccc(S(N)(=O)=O)cc1 (stereo not drawn) [Compound 10, 2-Methyl-N-(4-sulfamoyl-phenyl)-butyramide]	0/1 0/1 0/1	0/1 0/1 0/1	0/1 0/1 0/1	0/1 0/1 0/1	0/1 0/1 0/1	0/1 0/1 0/1	50	100	100	100	50	1/1	1/1	3/3	3/3	1/1	1/1
–	CCC(C(=O)Nc1ccc(S(N)(=O)=O)cc1)C(C)(C)C (stereo not drawn) [Compound 12, 2-Ethyl-3,3-dimethyl-N-(4-sulfamoyl-phenyl)-butyramide]	0/1 0/1 0/1	0/1 0/1 0/1	0/1 0/1 0/1	0/1 0/1 0/1	0/1 0/1 0/1	0/1 0/1 0/1	–	–	–	–	–	0/1	0/1	0/3	1/3	0/1	1/1
–	CC(C)C(C(=O)Nc1ccc(S(N)(=O)=O)cc1)C(C)C [Compound 13, 2-Isopropyl-3-methyl-N-(4-sulfamoyl-phenyl)-butyramide]	0/1 0/1 0/1	0/1 0/1 0/1	0/1 0/1 0/1	0/1 0/1 0/1	0/1 0/1 0/1	0/1 0/1 0/1	0	0	0	50	0	0/1	0/1	0/3	0/3	0/1	0/1
–	CC(C)C(C(=O)Nc1ccc(S(N)(=O)=O)cc1)C(C)(C)C (stereo not drawn) [Compound 14, 2-Isopropyl-3,3-dimethyl-N-(4-sulfamoyl-phenyl)-butyramide]	0/1 0/1 0/1	0/1 0/1 0/1	0/1 0/1 0/1	0/1 0/1 0/1	0/1 0/1 0/1	0/1 0/1 0/1	–	–	–	–	–	0/1	0/1	0/3	3/3	0/1	1/1
–	CC(C)(C)CC(=O)Nc1ccc(S(N)(=O)=O)cc1 [Compound 15, 3,3-Dimethyl-N-(4-sulfamoyl-phenyl)-butyramide]	0/1 0/1 0/1	0/1 0/1 0/1	0/1 0/1 0/1	0/1 0/1 0/1	0/1 0/1 0/1	0/1 0/1 0/1	25	75	100	100	75	0/1	0/1	5/7	1/3	4/5	1/1
–	CCCC(CC)C(=O)Nc1ccc(S(N)(=O)=O)cc1 (stereo not drawn) [Compound 17, 2-Ethyl-N-(4-sulfamoyl-phenyl)-pentanamide]	0/1 0/1 0/1	0/1 0/1 0/1	0/1 0/1 0/1	0/1 0/1 0/1	0/1 0/1 0/1	0/1 0/1 0/1	–	–	–	–	–	0/1	0/1	0/3	1/3	0/1	1/1
–	CCCC(C(=O)Nc1ccc(S(N)(=O)=O)cc1)C(C)(C)C (stereo not drawn) [Compound 22, 2-tert-Butyl-N-(4-sulfamoyl-phenyl)-pentanamide]	0/1 0/1 0/1	0/1 0/1 0/1	0/1 0/1 0/1	0/1 0/1 0/1	0/1 0/1 0/1	0/1 0/1 0/1	–	–	–	–	–	0/1	0/1	0/3	0/3	0/1	0/1
–	CCC(C)CC(=O)Nc1ccc(S(N)(=O)=O)cc1 (stereo not drawn) [Compound 24, 3-Methyl-N-(4-sulfamoyl-phenyl)-pentanamide]	0/1 0/1 0/1	0/1 0/1 0/1	0/1 0/1 0/1	0/1 0/1 0/1	0/1 0/1 0/1	0/1 0/1 0/1	–	–	–	–	–	0/1	0/1	0/3	0/3	0/1	0/1
157 to 158	CC(C)(C)C(=O)NCc1ccc(S(N)(=O)=O)cc1 [Compound 26, 2,2-Dimethyl-N-(4-sulfamoyl-benzyl)-propionamide]	0/1 0/1 0/1	0/1 0/1 0/1	0/1 0/1 0/1	0/1 0/1 0/1	0/1 0/1 0/1	0/1 0/1 0/1	–	–	–	–	–	0/1	0/1	0/3	0/3	0/1	0/1
–	CCC(CC)C(=O)NCCc1ccc(S(N)(=O)=O)cc1 [Compound 29, 2-Ethyl-N-[2-(4-sulfamoyl-phenyl)-ethyl]-butyramide]	0/1 0/1 0/1	0/1 0/1 0/1	0/1 0/1 0/1	0/1 0/1 0/1	0/1 0/1 0/1	0/1 0/1 0/1	50	75	25	25	25	0/1	1/1	0/3	1/3	0/1	1/1

From US20120264827A1, “SULFANYLAMIDE DERIVATIVES, USES THEREOF AND COMPOSITIONS COMPRISING THEM” (YISSUM RESEARCH DEVELOPMENT COMPANY OF THE HEBREW …, priority 2009, published 2012)
